Each structure is given as a SMILES string.

This test relates to IL-12 induced STAT4 phosphorlyation mediated by TYK2/JAK2. As to the kind of experiment: IL-12 Induced pSTAT4 in Human PBMC. The test is classed as cell-based. The note with it: 1.7 ng/mL IL-12 for 30 minutes. As to the method: Human PBMC were isolated from buffy coat and are stored frozen for assays as needed. […] 15 μL of compound or DMSO was added to the well at the desired concentrations and incubated at 1 hr at 37° C. 15 μL of stimulus (final concentration of 1.7 ng/mL IL-12) was added for 30 minutes prior to pSTAT4 and total STAT4 analysis using cell lysates prepared and analyzed by MSD reagents as per manufacturer protocol. The final DMSO concentration of compound in the assay was 0.1%.
The IL-12 induced pSTAT4 assay evaluates the inhibition of IL-12 induced STAT4 phosphorlyation mediated by TYK2/JAK2 (heterpdimeric complex).
In the case of `CNc1cc(Nc2cccn([C@H]3C[C@H](F)C3)c2=O)nc2c(C(=O)NC3CC[C@@H]3F)cnn12` (some centres unmarked) [Compound I-164], the IC50 was less than 0.1 µM.
As for `CNc1cc(Nc2cccn([C@H]3C[C@H](F)C3)c2=O)nc2c(C(=O)N[C@H]3CC[C@@H]3F)cnn12` [Compound I-165], the figure is less than 0.1 µM; as for `CNc1cc(Nc2cccn([C@H]3CC[C@H]3O)c2=O)nc2c(C(=O)NC3CC[C@@H]3F)cnn12` (some centres unmarked) [Compound I-167], less than 0.1 µM; as for `CNc1cc(Nc2cccn([C@H]3CC[C@H]3O)c2=O)nc2c(C(=O)N[C@@H]3CC[C@H]3F)cnn12` [Compound I-169], less than 0.1 µM.
`CNc1cc(Nc2cccn([C@H]3C[C@@H](OC)C3)c2=O)nc2c(C(=O)N[C@H]3CC[C@@H]3F)cnn12` [Compound I-174] gave an IC50 of less than 0.1 µM.
`CNc1cc(Nc2cccn([C@H]3C[C@H](OC)C3)c2=O)nc2c(C(=O)N[C@@H]3CC[C@H]3F)cnn12` [Compound I-178] returned an IC50 of less than 0.1 µM.
`CNc1cc(Nc2cccn([C@@H]3CCC[C@@H]3O)c2=O)nc2c(C(=O)NC3CC[C@@H]3F)cnn12` (some centres unmarked) [Compound I-179] displayed an IC50 of less than 0.1 µM.
`CNc1cc(Nc2cccn([C@@H]3CCC[C@@H]3O)c2=O)nc2c(C(=O)N[C@@H]3CC[C@H]3F)cnn12` [Compound I-181] gave an IC50 of less than 0.1 µM.
As for `CNc1cc(Nc2cccn(C3CCOCC3)c2=O)nc2c(C(=O)NC3CC[C@@H]3F)cnn12` (some centres unmarked) [Compound I-188], the figure is less than 0.1 µM; as for `CNc1cc(Nc2cccn(C3CCOCC3)c2=O)nc2c(C(=O)N[C@@H]3CC[C@H]3F)cnn12` [Compound I-190], less than 0.1 µM.
`CNc1cc(Nc2cccn(C3CCOCC3)c2=O)nc2c(C(=O)NC3CC[C@H]3F)cnn12` (some centres unmarked) [Compound I-191] returned an IC50 of less than 0.1 µM.
As for `CNc1cc(Nc2cccn(C3CCOCC3)c2=O)nc2c(C(=O)N[C@H]3CC[C@H]3F)cnn12` [Compound I-192], the figure is less than 0.1 µM; as for `CNc1cc(Nc2cccn(C3CCOCC3)c2=O)nc2c(C(=O)N[C@@H]3CC[C@@H]3F)cnn12` [Compound I-193], less than 0.1 µM.
Molecule `CNc1cc(Nc2cccn([C@@H]3CCCOC3)c2=O)nc2c(C(=O)NC3CC[C@@H]3F)cnn12` (some centres unmarked) [Compound I-194] had an IC50 of less than 0.1 µM.
With `CNc1cc(Nc2cccn([C@@H]3CCCOC3)c2=O)nc2c(C(=O)N[C@@H]3CC[C@H]3F)cnn12` [Compound I-196], the IC50 was less than 0.1 µM.
As to `CNc1cc(Nc2cccn([C@H]3CCCOC3)c2=O)nc2c(C(=O)NC3CC[C@@H]3F)cnn12` (some centres unmarked) [Compound I-197], the IC50 is less than 0.1 µM.
For the molecule `CNc1cc(Nc2cccn([C@H]3CCCOC3)c2=O)nc2c(C(=O)N[C@H]3CC[C@@H]3F)cnn12` [Compound I-198], the IC50 was less than 0.1 µM.
The molecule `CNc1cc(Nc2cccn(-c3ccccn3)c2=O)nc2c(C(=O)NC3CC[C@@H]3F)cnn12` (some centres unmarked) [Compound I-200] showed an IC50 of less than 0.1 µM.
In turn, `CNc1cc(Nc2cccn(-c3ccccn3)c2=O)nc2c(C(=O)N[C@H]3CC[C@@H]3F)cnn12` [Compound I-201] showed an IC50 of less than 0.1 µM.
For the molecule `CNc1cc(Nc2cccn([C@H]3[C@@H]4COC[C@@H]43)c2=O)nc2c(C(=O)NC3CC[C@H]3F)cnn12` (some centres unmarked) [Compound I-203], the IC50 is less than 0.1 µM.
Consider `CNc1cc(Nc2cccn([C@H]3[C@@H]4COC[C@@H]43)c2=O)nc2c(C(=O)N[C@H]3CC[C@H]3F)cnn12` [Compound I-204], for which the IC50 is less than 0.1 µM.
With `CNc1cc(Nc2cccn([C@H]3[C@@H]4COC[C@@H]43)c2=O)nc2c(C(=O)N[C@@H]3CC[C@@H]3F)cnn12` [Compound I-205] the figure was less than 0.1 µM.
Regarding `CNc1cc(Nc2cccn([C@H]3[C@@H]4COC[C@@H]43)c2=O)nc2c(C(=O)NC3CC[C@@H]3F)cnn12` (some centres unmarked) [Compound I-206], the IC50 is less than 0.1 µM.
`CNc1cc(Nc2cccn([C@H]3[C@@H]4COC[C@@H]43)c2=O)nc2c(C(=O)N[C@@H]3CC[C@H]3F)cnn12` [Compound I-208] returned an IC50 of less than 0.1 µM.
As to `CNc1cc(Nc2cccn([C@@H]3CCCC[C@@H]3O)c2=O)nc2c(C(=O)NC3CC[C@@H]3F)cnn12` (some centres unmarked) [Compound I-209], the IC50 was less than 0.1 µM.
As for `CNc1cc(Nc2cccn([C@@H]3CCCC[C@@H]3O)c2=O)nc2c(C(=O)N[C@@H]3CC[C@H]3F)cnn12` [Compound I-211], the figure is less than 0.1 µM.
With `CNc1cc(Nc2cccn([C@H]3CCCC[C@H]3O)c2=O)nc2c(C(=O)NC3CC[C@@H]3F)cnn12` (some centres unmarked) [Compound I-212] the figure was 0.1 to 0.5 µM; with `CNc1cc(Nc2cccn([C@H]3CCCC[C@H]3O)c2=O)nc2c(C(=O)N[C@@H]3CC[C@H]3F)cnn12` [Compound I-214], less than 0.1 µM; with `CNc1cc(Nc2cccn([C@@H]3CCOC[C@@H]3OC)c2=O)nc2c(C(=O)N[C@@H]3CC[C@H]3F)cnn12` [Compound I-217], less than 0.1 µM.
As for `CNc1cc(Nc2cccn([C@H]3CC[C@H](OC)CC3)c2=O)nc2c(C(=O)NC3CC[C@@H]3F)cnn12` (some centres unmarked) [Compound I-224], the figure is less than 0.1 µM; as for `CNc1cc(Nc2cccn([C@H]3CC[C@H](OC)CC3)c2=O)nc2c(C(=O)N[C@H]3CC[C@@H]3F)cnn12` [Compound I-225], less than 0.1 µM.
In turn, `CNc1cc(Nc2cccn([C@@H]3CCC[C@@H](OC)C3)c2=O)nc2c(C(=O)NC3CC[C@@H]3F)cnn12` (some centres unmarked) [Compound I-227] returned an IC50 of less than 0.1 µM.
The molecule `CNc1cc(Nc2cccn([C@@H]3CCC[C@@H](OC)C3)c2=O)nc2c(C(=O)N[C@H]3CC[C@@H]3F)cnn12` [Compound I-228] displayed an IC50 of less than 0.1 µM.
The molecule `CNc1cc(Nc2cccn([C@H]3CCC[C@H](OC)C3)c2=O)nc2c(C(=O)NC3CC[C@@H]3F)cnn12` (some centres unmarked) [Compound I-230] gave an IC50 of less than 0.1 µM.
For the molecule `CNc1cc(Nc2cccn([C@H]3CCC[C@H](OC)C3)c2=O)nc2c(C(=O)N[C@H]3CC[C@@H]3F)cnn12` [Compound I-231], the IC50 was less than 0.1 µM.
On to `CNc1cc(Nc2cccn([C@@H]3CCOC[C@@H]3OC)c2=O)nc2c(C(=O)N[C@@H]3CC[C@@H]3F)cnn12` [Compound I-235], for which the IC50 was less than 0.1 µM.
The molecule `CNc1cc(Nc2cccn(C3CCN(CCF)CC3)c2=O)nc2c(C(=O)NC3CC[C@@H]3F)cnn12` (some centres unmarked) [Compound I-236] yielded an IC50 of less than 0.1 µM.
`CNc1cc(Nc2cccn(C3CCN(CCF)CC3)c2=O)nc2c(C(=O)N[C@H]3CC[C@@H]3F)cnn12` [Compound I-237] gave an IC50 of less than 0.1 µM.
Consider `CNc1cc(Nc2cccn([C@H]3CC[C@@H]3OC)c2=O)nc2c(C(=O)NC3CC[C@H]3O)cnn12` (some centres unmarked) [Compound I-239], for which the IC50 is less than 0.1 µM.
`CNc1cc(Nc2cccn([C@H]3CC[C@@H]3OC)c2=O)nc2c(C(=O)N[C@H]3CC[C@H]3O)cnn12` [Compound I-240]: the IC50 is less than 0.1 µM.
With `CNc1cc(Nc2cccn([C@@H]3CC[C@H]3OC)c2=O)nc2c(C(=O)N[C@H]3CC[C@H]3O)cnn12` [Compound I-243] the figure was less than 0.1 µM; with `CNc1cc(Nc2cccn([C@H]3C[C@@H](OC)C3)c2=O)nc2c(C(=O)N[C@H]3CC[C@@H]3OC)cnn12` [Compound I-253], less than 0.1 µM; with `CNc1cc(Nc2cccn([C@H]3C[C@H](OC)C3)c2=O)nc2c(C(=O)N[C@H]3CC[C@@H]3OC)cnn12` [Compound I-255], less than 0.1 µM.
In turn, `CNc1cc(Nc2cccn([C@H]3CCC[C@@H](C#N)C3)c2=O)nc2c(C(=O)N[C@@H]3CC[C@H]3OC)cnn12` [Compound I-258] came in with an IC50 of less than 0.1 µM.
As for `CNc1cc(Nc2cccn([C@@H]3CCC[C@H](C#N)C3)c2=O)nc2c(C(=O)N[C@@H]3CC[C@H]3OC)cnn12` [Compound I-260], the figure is less than 0.1 µM; as for `CNc1cc(Nc2cccn([C@H]3[C@@H]4COC[C@@H]43)c2=O)nc2c(C(=O)N[C@@H]3CC[C@H]3OC)cnn12` [Compound I-262], less than 0.1 µM; as for `CNc1cc(Nc2cccn(-c3ccccn3)c2=O)nc2c(C(=O)N[C@@H]3CC[C@H]3OC)cnn12` [Compound I-264], less than 0.1 µM.
Take `CNc1cc(Nc2cccn(-c3ncccc3F)c2=O)nc2c(C(=O)NC3CC[C@H]3OC)cnn12` (some centres unmarked) [Compound I-265]: the IC50 is less than 0.1 µM.
In turn, `CNc1cc(Nc2cccn(-c3ncccc3F)c2=O)nc2c(C(=O)N[C@@H]3CC[C@H]3OC)cnn12` [Compound I-266] showed an IC50 of less than 0.1 µM.
As for `CNc1cc(Nc2cccn([C@@H]3C[C@H]3F)c2=O)nc2c(C(=O)NC3CCC3(F)F)cnn12` (some centres unmarked) [Compound I-274], the IC50 is less than 0.1 µM.
In the case of `CNc1cc(Nc2cccn([C@@H]3C[C@H]3F)c2=O)nc2c(C(=O)N[C@@H]3CCC3(F)F)cnn12` [Compound I-276], the IC50 was less than 0.1 µM.
Turning to `CNc1cc(Nc2cccn([C@H]3C[C@@H]3F)c2=O)nc2c(C(=O)NC3CCC3(F)F)cnn12` (some centres unmarked) [Compound I-277], the half-inhibitory concentration (IC50) was less than 0.1 µM.
For the molecule `CNc1cc(Nc2cccn([C@H]3C[C@@H]3F)c2=O)nc2c(C(=O)N[C@@H]3CCC3(F)F)cnn12` [Compound I-279], the IC50 is less than 0.1 µM.
For `CNc1cc(Nc2cccn(C3COC3)c2=O)nc2c(C(=O)NC3CCC3(F)F)cnn12` (centres unmarked) [Compound I-280], the IC50 was less than 0.1 µM.
The molecule `CNc1cc(Nc2cccn(C3COC3)c2=O)nc2c(C(=O)N[C@@H]3CCC3(F)F)cnn12` [Compound I-282] displayed an IC50 of less than 0.1 µM.
With `CNc1cc(Nc2cccn([C@H]3C[C@H](F)C3)c2=O)nc2c(C(=O)NC3CCC3(F)F)cnn12` (some centres unmarked) [Compound I-283] the figure was less than 0.1 µM.
Molecule `CNc1cc(Nc2cccn([C@H]3C[C@H](F)C3)c2=O)nc2c(C(=O)N[C@@H]3CCC3(F)F)cnn12` [Compound I-285] displayed an IC50 of less than 0.1 µM.
Take `CNc1cc(Nc2cccn([C@H]3CC[C@H]3O)c2=O)nc2c(C(=O)NC3CCC3(F)F)cnn12` (some centres unmarked) [Compound I-286]: the IC50 is less than 0.1 µM.
In the case of `CNc1cc(Nc2cccn([C@H]3CC[C@H]3O)c2=O)nc2c(C(=O)N[C@H]3CCC3(F)F)cnn12` [Compound I-287], the IC50 was less than 0.1 µM.

The values above are taken from patent publication US11414431B2, “Substituted pyrazolo[1,5-a]pyrimidines as TYK2 inhibitors” (Nimbus Lakshmi, Inc., priority 2018, dated 2022).
